Measured values as given in patent US11939398B2, “Modified peptides for use in treating neurodegenerative disorders” (Neuro-Bio Ltd, priority 2016, dated 2024).
“Also recorded” adds a separate entry of the source. Where a SMILES comes first, the peptide text is derived from it. [ ]: non-standard residue; d: D form. Phe(4-NH2) = Nc1ccc(C[C@H](N)C(=O)O)cc1; 2Nal = N[C@@H](Cc1ccc2ccccc2c1)C(=O)O

How the values were obtained:
[1] = tested on: rat basal forebrain slices; assay: voltage-sensitive dye imaging (VSDI) on brain slices, Example 5; type: cell-based
Procedure: Male Wistar rats (14 days old) were anaesthetised using isoflurane (˜15 ml, 100% w/w). Isoflurane was applied to the cotton bed at the bottom of an anaesthetic chamber (glass box 20×15×15 cm) where rats were then placed for approximately 45 s until complete anaesthesia was reached. The hind paw of each anaesthetised rat was pinched to check for the appropriate depth of anaesthesia. Upon confirmation of anaesthesia, rats were quickly decapitated, with the brain being quickly removed and immersed in ice cold oxygenated ‘slicing’ artificial cerebrospinal fluid (aCSF in mmol: 120 NaCl, 5 KCL, 20 NaHCO3, 2.4 CaCl2 2 MgSO4, 1.2 KH2PO4, 10 glucose, 6.7 HEPES salt and 3.3 HEPES acid; pH=7.1). Coronal slices (400 μm thick) were then taken from a block of brain containing the basal forebrain, namely the MS-dBB complex (between +9.20 and +9.48 mm Interaural and +0.48 and +0.2 mm Bregma, FIG. 4A) and the somatosensory barrel field cortex (SiBF, between +8.08 and +7.20 mm Interaural and −0.92 mm and −1.80 mm Bregma) (Paxinos and Watson, 1998) using a Vibratome (Leica VTi000S).
Slices were then transferred to a bubbler pot containing oxygenated aCSF at room temperature (recording aCSF in mmol: 124 NaCl, 5 KCL, 20 NaHCO3, 2.4 CaCl2 2 MgSO4, 1.3 KH2PO4, 10 glucose; pH=7.4) which was identical to that used in VSDI (voltage sensitive dye imaging) recording. Slices were then left for approximately 1-1.5 hours before preparing them for VSD staining.
Slices were placed in a dark, high humidity chamber filled with aCSF bubbled with 95% O2, 5% CO2. Once there, the dye solution (4% 0.2 mM styryl dye pyridinium 4-[2-[6-(dibutylamino)-2-napthalenyl]-ethenyl]-1-(3-sulfopropyl)hydroxide (Di-4-NEPPS), Invitrogen, Paisley, UK in 48% aCSF, 48% foetal bovine serum, 3.5% DMSO and 0.4% cremophore EL) (Tominaga et al., 2000) was applied to the slices for 20-25 minutes before being transferred back to a bubbler pot containing oxygenated aCSF kept at room temperature for 30 minutes.
When starting the VSDI recordings, slices were placed in the recording bath on a small piece of filter paper to allow the flow of oxygenated aCSF on the underside of the slice and in order to keep it alive. The slice was then weighed down by a home-made plastic grid that was placed on top of the slice. […] For the acquisition of VSD data, 2 dimensional images, equivalent to 88×60 pixels, were recorded using the MiCamo2 High Resolution camera (Brain Vision, Japan) with BV_Analyze imaging software. […] Light was generated using an Osram halogen xenophot 64634 HLX EFR Display/Optic lamp and was filtered to emit green (530±10 nm) light using a MHF-G150LR (Moritex Corporation) coupled to the MiCamo2 High resolution imaging system and filtered the emitted fluorescence through a >590 nm high pass filter. […]

[2] = stability / degradation in human blood; type: in vitro ADME; settings: human blood diluted with PBS
Procedure: (§1) Test compounds were spiked at 10 μg/ml into either PBS or blood (Male Wistar rat or Human) diluted with PBS, and a series of samples taken according to the following scheme:
(§2) Procaine, a compound known to be unstable in blood, was included as a positive control (ran with 5-fold diluted blood only). The sampling procedure was to add an aliquot to ice-cold acetonitrile, centrifuge, and store the supernatant on dry ice until analysis. Analysis by UHPLC-TOF mass spectrometry using electrospray ionisation was performed on the same day as the incubations were performed.

[3] = stability / degradation in rat blood; type: in vitro ADME; settings: rat blood diluted with PBS
Procedure: as §1, §2

PC12 cells [4] = assay: Calcium fluorometry (Fluo-8, PNU282987-induced calcium increase) in PC12 cells; type: cell-based; settings: in conjunction with T30, PC12 cells
Procedure: PC12 cells were plated in 200 μl of Dulbecco's Modified Eagle's medium (DMEM) plus 2 mM of L-glutamine medium the day before the experiment in 96 well plates. On the day of the experiment, the Fluo-8 solution (Abcam) was prepared as described by the provider by adding 20 μl of Fluo-8 in the assay buffer that contains 9 ml of Hank's Balanced Salt Solution (HBSS) and 1 ml of pluronic F127 Plus. Subsequently, 100 μl of growth medium was removed and 100 μl of Fluo-8 solution were added. Treatments with T30 in conjunction with NBP14 or Tri peptides were added and incubated for 30 minutes in the incubator and 30 minutes room temperature. After 1 h, the plate was placed in the fluorescence plate reader (Fluostar, Optima, BMG Labtech, Ortenberg, Germany). Before reading the fluorescence, PNU282987 1 μM, an alpha7 specific agonist of the nicotinic receptors, was prepared and placed in the Fluostar injector. For each well, the reading was formed by a basal fluorescence reading followed by PNU282987 injection that induced an increase of calcium via nicotinic receptors.
In each of the different cell techniques, the statistics analysis was performed with the average of the percentage values of 3 or more experiments. Comparisons between multiple treatment groups and the same control were performed by one-way analysis of variance (ANOVA) and Tukey's post-hoc tests using GraphPAD Instat (GraphPAD software, San Diego, California). Statistical significance was taken at a p value<0.05.

PC12 cells [5] = assay: AChE activity assay (Ellman reagent) in PC12 cells treated with T30; type: cell-based; settings: combined with T30 (1 μM)
Procedure: AChE activity was measured using the Ellman reagent that measures the presence of thiol groups as a result of AChE activity. In the case of the G4 experiment, AChE (G4) activity was tested alone and also together with either NBP14 or Tri peptides. PC12 cells were plated the day before the experiment as for the cell viability assay. Cells were treated with T30 (1 μM) alone or combined with NBP14 or Tri peptide (0.5 μM). After treatment, supernatant (perfusate) of each treatment was collected and 25 μL from each condition were added to a new flat bottomed 96 well plate followed by the addition of 175 μl of Ellman reagent (Solution A: KH2PO4 139 mM and K2HPO4 79.66 mM, pH 7.0; solution B (substrate): Acetylthiocholine Iodide 11.5 mM; Solution C (Reagent): 5,5′-dithiobis(2-nitrobenzoic acid) 8 mM and NaHCO3 15 mM). The Ellman reagent was prepared as a mixture of the 3 solutions in a ratio 33(A):3(B):4(C). Absorbance measurements were taken for an interval of 60 minutes across experiments at 405 nm in a Vmax plate reader (Molecular devices, Wokingham, UK).
In each of the different cell techniques, the statistics analysis was performed with the average of the percentage values of 3 or more experiments. […]

α7 nicotinic-receptor = α7 nicotinic-receptor (Homo sapiens, UniProt P36544); settings: cited from earlier work
Sequence of α7 nicotinic-receptor (P36544 23-502): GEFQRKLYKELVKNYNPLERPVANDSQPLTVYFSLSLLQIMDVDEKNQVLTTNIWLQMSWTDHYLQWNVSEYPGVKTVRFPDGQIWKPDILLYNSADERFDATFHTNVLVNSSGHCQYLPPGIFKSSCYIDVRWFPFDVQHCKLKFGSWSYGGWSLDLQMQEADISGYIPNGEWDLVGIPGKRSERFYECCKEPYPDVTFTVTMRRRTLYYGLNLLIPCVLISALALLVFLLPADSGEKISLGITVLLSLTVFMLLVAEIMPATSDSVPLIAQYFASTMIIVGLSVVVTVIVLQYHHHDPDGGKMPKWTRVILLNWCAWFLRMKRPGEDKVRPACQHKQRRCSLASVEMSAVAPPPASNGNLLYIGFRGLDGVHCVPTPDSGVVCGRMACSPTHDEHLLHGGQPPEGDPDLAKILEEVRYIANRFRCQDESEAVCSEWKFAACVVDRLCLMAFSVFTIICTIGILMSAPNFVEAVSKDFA

Row | Structure (SMILES) | blocking of T30-induced deviations from baseline (VSDI) ([1]; 4 μM co-perfused with T30 (2 uM)) | change in magnitude (summed fluorescence) of evoked responses, compound alone ([1]; 4 μM in perfusate, no T30) | stability in blood ([2]; 10 μg/ml, up to 60 min) | degradants detected ([2]; UHPLC-TOF MS) | stability in blood ([3]; 10 μg/ml, up to 60 min) | degradants detected ([3]; UHPLC-TOF MS) | protection against T30-induced calcium influx (PC12 cells [4]) | protection against T30-induced AChE activity (PC12 cells [5]) | affinity for the α7 nicotinic-receptor (α7 nicotinic-receptor) [µM]
1 | CC(=O)N[C@@H](Cc1ccc2ccccc2c1)C(=O)N[C@@H](Cc1ccc(N)cc1)C(=O)N[C@@H](Cc1c[nH]c2ccccc12)C(N)=O [Tri02, 4-((S)-2((S)-2-acetamido-3-(naphthalene-2-yl)propanamido)-3-(((S)-1-amino-3-(1H-indol-3-yl)-1-oxopropan-2-yl)amino)-3-oxopropyl)benzenaminium] (Ac-[2Nal]-[Phe(4-NH2)]-Trp-NH2) | not found to protect against T30-induced deviations from baseline; also recorded: some efficacy in blocking those T30-induced deviation | recapitulates results seen with application of 4 μM NBP14; also recorded: small alterations | some instability | a variety of degradants were detected | some instability | a variety of degradants were detected | protects against the toxic effects of T30 | protects against the toxic effects of T30 | 
2 | COc1ccc2c3c1O[C@H]1C[C@@H](O)C=C[C@@]31CCN(C)C2 [galanthamine] |  |  |  |  |  |  |  |  | 10
